Results reported in PubChem BioAssay (NCI).
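Tested at 5 concentrations; 48 h exposure; 96-well plates; endpoints linearly interpolated, else capped at highest concentration. TGI denotes the concentration required for complete inhibition of growth.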

What was measured:
Assay in all cases: DTP human tumour cell line panel, 48 h
786-0 renal = test system: 786-0 renal
A498 renal = test system: A498 renal
A549 NSCLC = test system: A549 NSCLC
ACHN renal = test system: ACHN renal
BT-549 breast = test system: BT-549 breast
CAKI-1 renal = test system: CAKI-1 renal
CCRF-CEM leukemia = test system: CCRF-CEM leukemia
COLO 205 colon = test system: COLO 205 colon
DU-145 prostate = test system: DU-145 prostate
EKVX NSCLC = test system: EKVX NSCLC
HCT-116 colon = test system: HCT-116 colon
HCT-15 colon = test system: HCT-15 colon
HL-60(TB) leukemia = test system: HL-60(TB) leukemia
HOP-62 NSCLC = test system: HOP-62 NSCLC
HOP-92 NSCLC = test system: HOP-92 NSCLC
HS 578T breast = test system: HS 578T breast
HT29 colon = test system: HT29 colon
IGROV1 ovarian = test system: IGROV1 ovarian
K-562 leukemia = test system: K-562 leukemia
KM12 colon = test system: KM12 colon
LOX IMVI melanoma = test system: LOX IMVI melanoma
M14 melanoma = test system: M14 melanoma
MALME-3M melanoma = test system: MALME-3M melanoma
MCF7 breast = test system: MCF7 breast
MDA-MB-231 breast = test system: MDA-MB-231 breast
MDA-MB-435 = test system: MDA-MB-435
MDA-N = test system: MDA-N
MOLT-4 leukemia = test system: MOLT-4 leukemia
NCI-H226 lung = test system: NCI-H226 lung
NCI-H23 lung = test system: NCI-H23 lung
NCI-H460 lung = test system: NCI-H460 lung
NCI-H522 lung = test system: NCI-H522 lung
NCI/ADR-RES ovarian = test system: NCI/ADR-RES ovarian
OVCAR-3 ovarian = test system: OVCAR-3 ovarian
OVCAR-4 ovarian = test system: OVCAR-4 ovarian
OVCAR-5 ovarian = test system: OVCAR-5 ovarian
OVCAR-8 ovarian = test system: OVCAR-8 ovarian
PC-3 prostate = test system: PC-3 prostate
RPMI-8226 leukemia = test system: RPMI-8226 leukemia
RXF 393 renal = test system: RXF 393 renal
SF-268 CNS = test system: SF-268 CNS
SF-295 CNS = test system: SF-295 CNS
SF-539 CNS = test system: SF-539 CNS
SK-MEL-2 melanoma = test system: SK-MEL-2 melanoma
SK-MEL-28 melanoma = test system: SK-MEL-28 melanoma
SK-MEL-5 melanoma = test system: SK-MEL-5 melanoma
SK-OV-3 ovarian = test system: SK-OV-3 ovarian
SN12C renal = test system: SN12C renal
SNB-19 CNS = test system: SNB-19 CNS
SNB-75 CNS = test system: SNB-75 CNS
SR leukemia = test system: SR leukemia
SW-620 colon = test system: SW-620 colon
TK-10 renal = test system: TK-10 renal
U251 CNS = test system: U251 CNS
UACC-257 melanoma = test system: UACC-257 melanoma
UACC-62 melanoma = test system: UACC-62 melanoma
UO-31 renal = test system: UO-31 renal
HCC-2998 colon = test system: HCC-2998 colon
T-47D breast = test system: T-47D breast

`CN(CC(=O)O)Cc1c[nH]c2ccccc12` was tested. Which TGI (786-0 renal) did it give?
The TGI was over 100 µM.

And the TGI (A498 renal)?
Its TGI is over 100 µM.

And the TGI (A549 NSCLC)?
The TGI was over 100 µM.

And the TGI (ACHN renal)?
Its TGI is over 100 µM.

What about the TGI (BT-549 breast) of the same molecule?
The TGI was over 100 µM.

And the TGI (CAKI-1 renal)?
Its TGI is over 100 µM.

What about the TGI (CCRF-CEM leukemia) of the same molecule?
The TGI was over 100 µM.

What about the TGI (COLO 205 colon) of the same molecule?
The TGI was over 100 µM.

What about the TGI (DU-145 prostate) of the same molecule?
Its TGI is over 100 µM.

What about the TGI (EKVX NSCLC) of the same molecule?
The TGI was over 100 µM.

What about the TGI (HCT-116 colon) of the same molecule?
Its TGI is over 100 µM.

And the TGI (HCT-15 colon)?
The TGI was over 100 µM.

What about the TGI (HL-60(TB) leukemia) of the same molecule?
The TGI was over 100 µM.

What about the TGI (HOP-62 NSCLC) of the same molecule?
Its TGI is over 100 µM.

What about the TGI (HOP-92 NSCLC) of the same molecule?
The TGI was over 100 µM.

And the TGI (HS 578T breast)?
Its TGI is over 100 µM.

And the TGI (HT29 colon)?
Its TGI is over 100 µM.

And the TGI (IGROV1 ovarian)?
The TGI was over 100 µM.

And the TGI (K-562 leukemia)?
Its TGI is over 100 µM.

What about the TGI (KM12 colon) of the same molecule?
Its TGI is over 100 µM.

And the TGI (LOX IMVI melanoma)?
Its TGI is over 100 µM.

What about the TGI (M14 melanoma) of the same molecule?
Its TGI is over 100 µM.

What about the TGI (MALME-3M melanoma) of the same molecule?
Its TGI is over 100 µM.

And the TGI (MCF7 breast)?
Its TGI is over 100 µM.

What about the TGI (MDA-MB-231 breast) of the same molecule?
The TGI was over 100 µM.

And the TGI (MDA-MB-435)?
Its TGI is over 100 µM.

And the TGI (MDA-N)?
The TGI was over 100 µM.

And the TGI (MOLT-4 leukemia)?
Its TGI is over 100 µM.

And the TGI (NCI-H226 lung)?
Its TGI is over 100 µM.

What about the TGI (NCI-H23 lung) of the same molecule?
The TGI was over 100 µM.

And the TGI (NCI-H460 lung)?
The TGI was over 100 µM.

And the TGI (NCI-H522 lung)?
Its TGI is over 100 µM.

What about the TGI (NCI/ADR-RES ovarian) of the same molecule?
The TGI was over 100 µM.

And the TGI (OVCAR-3 ovarian)?
The TGI was over 100 µM.

What about the TGI (OVCAR-4 ovarian) of the same molecule?
The TGI was over 100 µM.

What about the TGI (OVCAR-5 ovarian) of the same molecule?
Its TGI is over 100 µM.

And the TGI (OVCAR-8 ovarian)?
Its TGI is over 100 µM.

And the TGI (PC-3 prostate)?
Its TGI is over 100 µM.

What about the TGI (RPMI-8226 leukemia) of the same molecule?
The TGI was over 100 µM.

And the TGI (RXF 393 renal)?
The TGI was over 100 µM.

And the TGI (SF-268 CNS)?
The TGI was over 100 µM.

What about the TGI (SF-295 CNS) of the same molecule?
Its TGI is over 100 µM.

What about the TGI (SF-539 CNS) of the same molecule?
The TGI was over 100 µM.

What about the TGI (SK-MEL-2 melanoma) of the same molecule?
The TGI was over 100 µM.

And the TGI (SK-MEL-28 melanoma)?
The TGI was over 100 µM.

And the TGI (SK-MEL-5 melanoma)?
The TGI was over 100 µM.

And the TGI (SK-OV-3 ovarian)?
Its TGI is over 100 µM.

And the TGI (SN12C renal)?
Its TGI is over 100 µM.

And the TGI (SNB-19 CNS)?
Its TGI is over 100 µM.

What about the TGI (SNB-75 CNS) of the same molecule?
The TGI was over 100 µM.

What about the TGI (SR leukemia) of the same molecule?
Its TGI is over 100 µM.

And the TGI (SW-620 colon)?
The TGI was over 100 µM.

And the TGI (TK-10 renal)?
Its TGI is over 100 µM.

And the TGI (U251 CNS)?
The TGI was over 100 µM.

And the TGI (UACC-257 melanoma)?
The TGI was over 100 µM.

And the TGI (UACC-62 melanoma)?
The TGI was over 100 µM.

And the TGI (UO-31 renal)?
Its TGI is over 100 µM.

How did the TGI (786-0 renal) turn out when `O=C1N(c2ccccc2)N=C2c3ccncc3C3=NN(c4ccccc4)C(=O)C123` (stereo not given) was run?
The TGI was over 100 µM.

What about the TGI (A498 renal) of the same molecule?
Its TGI is over 100 µM.

And the TGI (A549 NSCLC)?
Its TGI is over 100 µM.

What about the TGI (ACHN renal) of the same molecule?
Its TGI is over 100 µM.

What about the TGI (BT-549 breast) of the same molecule?
Its TGI is over 100 µM.

What about the TGI (CAKI-1 renal) of the same molecule?
The TGI was over 100 µM.

What about the TGI (CCRF-CEM leukemia) of the same molecule?
The TGI was over 100 µM.

What about the TGI (COLO 205 colon) of the same molecule?
Its TGI is 6.12 µM.

And the TGI (DU-145 prostate)?
Its TGI is over 100 µM.

What about the TGI (EKVX NSCLC) of the same molecule?
The TGI was over 100 µM.

And the TGI (HCC-2998 colon)?
Its TGI is over 88 µM.

And the TGI (HCT-116 colon)?
The TGI was over 100 µM.

What about the TGI (HCT-15 colon) of the same molecule?
Its TGI is over 100 µM.

And the TGI (HL-60(TB) leukemia)?
Its TGI is over 100 µM.

What about the TGI (HOP-62 NSCLC) of the same molecule?
The TGI was over 100 µM.

What about the TGI (HOP-92 NSCLC) of the same molecule?
Its TGI is over 100 µM.

What about the TGI (HS 578T breast) of the same molecule?
Its TGI is over 100 µM.

And the TGI (HT29 colon)?
The TGI was over 100 µM.

And the TGI (IGROV1 ovarian)?
Its TGI is over 100 µM.

And the TGI (K-562 leukemia)?
Its TGI is over 100 µM.

What about the TGI (KM12 colon) of the same molecule?
The TGI was over 100 µM.

What about the TGI (LOX IMVI melanoma) of the same molecule?
The TGI was over 100 µM.

And the TGI (M14 melanoma)?
The TGI was over 100 µM.

What about the TGI (MALME-3M melanoma) of the same molecule?
The TGI was over 100 µM.

What about the TGI (MCF7 breast) of the same molecule?
Its TGI is over 100 µM.

And the TGI (MDA-MB-231 breast)?
The TGI was over 100 µM.

And the TGI (MDA-MB-435)?
The TGI was over 100 µM.

What about the TGI (MOLT-4 leukemia) of the same molecule?
The TGI was over 100 µM.

What about the TGI (NCI-H226 lung) of the same molecule?
Its TGI is over 100 µM.

What about the TGI (NCI-H23 lung) of the same molecule?
Its TGI is over 100 µM.

What about the TGI (NCI-H460 lung) of the same molecule?
Its TGI is over 100 µM.

And the TGI (NCI-H522 lung)?
Its TGI is over 100 µM.

What about the TGI (NCI/ADR-RES ovarian) of the same molecule?
Its TGI is over 100 µM.

And the TGI (OVCAR-3 ovarian)?
Its TGI is over 100 µM.

What about the TGI (OVCAR-4 ovarian) of the same molecule?
Its TGI is over 100 µM.

And the TGI (OVCAR-5 ovarian)?
The TGI was over 100 µM.

And the TGI (OVCAR-8 ovarian)?
The TGI was over 100 µM.

And the TGI (PC-3 prostate)?
Its TGI is over 100 µM.

What about the TGI (RPMI-8226 leukemia) of the same molecule?
The TGI was over 100 µM.

What about the TGI (RXF 393 renal) of the same molecule?
The TGI was over 100 µM.

And the TGI (SF-268 CNS)?
The TGI was over 100 µM.

What about the TGI (SF-295 CNS) of the same molecule?
Its TGI is over 100 µM.

And the TGI (SF-539 CNS)?
The TGI was over 46.8 µM.

What about the TGI (SK-MEL-2 melanoma) of the same molecule?
The TGI was over 100 µM.

And the TGI (SK-MEL-28 melanoma)?
Its TGI is over 100 µM.

What about the TGI (SK-MEL-5 melanoma) of the same molecule?
Its TGI is over 47 µM.

And the TGI (SK-OV-3 ovarian)?
Its TGI is over 100 µM.

And the TGI (SN12C renal)?
Its TGI is over 100 µM.

What about the TGI (SNB-19 CNS) of the same molecule?
The TGI was over 100 µM.

And the TGI (SNB-75 CNS)?
The TGI was over 100 µM.

And the TGI (SR leukemia)?
Its TGI is over 100 µM.

What about the TGI (SW-620 colon) of the same molecule?
The TGI was over 100 µM.

And the TGI (T-47D breast)?
Its TGI is over 100 µM.

What about the TGI (TK-10 renal) of the same molecule?
The TGI was over 100 µM.

And the TGI (U251 CNS)?
The TGI was over 100 µM.

What about the TGI (UACC-257 melanoma) of the same molecule?
The TGI was over 100 µM.

And the TGI (UACC-62 melanoma)?
The TGI was over 57.1 µM.

And the TGI (UO-31 renal)?
Its TGI is over 100 µM.
